Ends that are not written are not given here.

For assay [1], the target named is T1, TGF-β3 (Homo sapiens, UniProt P10600).
T1 sequence (P10600 301-412 limits assumed): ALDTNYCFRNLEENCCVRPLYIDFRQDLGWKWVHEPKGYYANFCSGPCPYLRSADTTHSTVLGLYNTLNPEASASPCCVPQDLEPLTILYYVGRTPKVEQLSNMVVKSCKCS
Put plainly: ELISA-type binding of growth factor to biotinylated peptide on streptavidin plates. The conditions noted are these: peptide 0.2 μM on streptavidin plate, TGF-β3 1 μM-1 nM. An excerpt: Peptides that bind TGF-β3 were identified by phage display biopanning. Recombinant human TGF-β3 (rhTGF-β3) was biotinylated and immobilized on streptavidin-coated microtiter plates. Twenty-two different phage display libraries were used for the selection. Enrichment of target-binding phage in the selection was monitored using an ELISA-type assay with an HRP-conjugated anti-M13 antibody. After enrichment for TGF-β3 specific phage, individual phage were picked, propagated on E. coli, and tested for binding to TGF-β3. Over 20 individual phage were isolated that bound TGF-β3. […] The TGF-β3-binding peptide sequences were then synthesized using standard solid-phase peptide synthesis techniques on a Symphony Peptide Synthesizer (PROTEIN TECHNOLOGIES, Tucson, Ariz.) using standard Fmoc chemistry as described herein above at Example 2. Biotinylated peptides were generated similarly, with a GSSGK(biotin) sequence added to the C-terminus of the peptide.
The TGF-β binding peptides with the biotin moiety on their C-terminus were tested for their ability to bind the target growth factor using the following methods. Streptavidin-coated plates were first prepared by generating a 1:100 dilution of streptavidin (1 mg/mL) in 0.1M NaHCO3 buffer. […] To reveal immunoreactivity, 100 μL of para-nitrophenyl phosphate solution was added to each well, and optical density was recorded on a spectrophotometer.

Assay [2] has as its system human MSCs (mixed with IM-9 and U937 cells). Description: Capture of MSCs from a mixed cell population with peptide on CELLECTION magnetic beads. It is filed as cell-based. The conditions noted are these: starting mixture 38% IM9, 56% U937, 4% MSC. An excerpt: In this experiment, biotinylated cell binding peptide, SEQ ID NO: 16, was attached to CELLECTION magnetic beads. The CELLECTION beads have streptavidin coupled to a magnetic particle through a DNA linker. Three different cell types, human MSCs, IM-9, and U937 cells were differentially labeled with […] dye and mixed in a ratio such that the MSCs represented ˜4% of the starting cell mixture (the percentage of each cell type in the starting mixture was 38% IM9, 56% U937, and 4% MSC). The cell binding peptide, SEQ ID NO: 16, was biotinylated as described herein at Example 2, as was a general cell binding peptide for use as a control peptide in the experiment. Magnetic particles with no peptide attached, as well as magnetic beads having attached either the cell binding peptide, SEQ ID NO: 16, or the control peptide were tested for their ability to capture human MSCs. The starting cell mixture was incubated with magnetic beads having either attached peptide or no peptide, the beads were washed, and the captured cells were released from the beads by DNase treatment. The cells were measured by flow cytometry histograms shown in 18A-18C. The magnetic beads without peptide captured little or no cells (FIG. 18B). The magnetic beads with attached cell binding peptide SEQ ID NO: 16 captured a cell population that was 96% MSCs (FIG. 18C).

Assay [3] has as its system human ASCs (adipose-derived mesenchymal stem cells). Put plainly: Biotinylated peptide cell binding specificity, flow cytometry with Neutravidin-PE. The settings on record: 25 μM solution, 30 min at 4° C. An excerpt: (§1) The synthetic biotinylated cell binding peptide SEQ ID NO: 4 was examined for its ability to specifically bind MSCs compared to a number of other cells types including adipose-derived mesenchymal stem cells (ASCs), dermal fibroblasts, rodent MSCs, red blood cells, monocytes, lymphocytes and granulocytes. The cell binding peptide was biotinylated as described herein at Example 2. Cultured cells of each type were either purchased (ASCs and dermal fibroblasts) or isolated from rodent bone marrow (rodent MSCs) or human blood. Cells were first harvested and resuspended at 10^6/mL in PBS+2% fetal bovine serum (FBS). An aliquot of cells (50 μL) was incubated in 50 μL of peptide solution (25 μM in PBS+FBS) for 30 min at 4° C. Cells were then washed twice in PBS+FBS with 300×g centrifugation for 5 min between washes. Fluorescently-tagged neutravidin (Neutravidin-PE from INVITROGEN) was then added to the cells to label biotinylated peptide bound to cells. Neutravidin-PE was diluted 1:250 from stock and applied at 50 μL to cells. Cells were then washed in PBS+FBS, and acquired on a BD […]. Peptide reactivity was then measured as percent positivity relative to Neutravidin-PE staining without the addition of biotinylated peptide.

Assay [4] has as its system human MSCs. The description is as above. The settings on record: 25 μM solution, 30 min at 4° C.
Excerpt: as §1

Assay [5] has as its system dermal fibroblasts. Described as above. Set-up: species or system human. The conditions noted are these: 25 μM solution, 30 min at 4° C.
Excerpt: as §1

Assay [6] concerns endothelial colony forming cells (ECFCs). Description: Biotinylated peptide binding to endothelial and other cells, flow cytometry. Set-up: species or system human. The settings on record: biotinylated peptide 10 μM, 30 min at 4° C. As for the experimental part: (§2) The synthetic biotinylated binding peptide SEQ ID NO: 4 was further examined for its ability to bind endothelial cells compared to other cell types (see FIG. 16). […] ECFCs are clonally expanded cells isolated from human umbilical cord blood, and are considered highly proliferative endothelial progenitor cells (EPCs) based on their clonogenic and proliferative potential. In another experiment, binding peptide SEQ ID NO: 4 was assayed for its ability to selectively isolate endothelial cells versus smooth muscle cells in the presence of whole blood. HUVECs or UASMCs were incubated in the presence of medium containing 20% whole blood and binding peptide SEQ ID NO: 4-conjugated magnetic beads (via biotin-SA) for 30 min. The solutions containing the bead-peptide-cell complexes were then passed through a […] LS column in a magnetic field. The column was washed, and the remaining peptide-bound cells were then released from the magnetic field and counted.
In general terms: A flow cytometer gives signals particle by particle.

Assay [7] concerns umbilical artery smooth muscle cells (UASMCs). The assay is described as above. The conditions noted are these: biotinylated peptide 10 μM, 30 min at 4° C. As to the method:
as §2

Assay [8] concerns human umbilical vein endothelial cells (HUVECs). The assay is described as above. The settings on record: biotinylated peptide 10 μM, 30 min at 4° C. As to the method: as §2

For “SSCNNLSVCTFDKIIERNRSSR (SSCNNLSVCTFDKIIERNRSSRGSSG-{K(biotin)}; cysteine pairing not given here) [SEQ ID NO: 21, tested with C-terminal GSSGK(biotin)]”, the “binding affinity for TGF-β3” value in assay [1] was “best binding affinity”.

Take “SSFRFGPLGTWNYPSTDNAE (also: biotin, site not given here) [SEQ ID NO: 16, tested biotinylated]”: in assay [2], the “MSCs in captured cell population” value came to 96%.

Consider “SSFWDVCQGDGTCYGGGSR (SSFWDVCQGDGTCYGGGSRGSSG-{K(biotin)}; cysteine pairing not given here) [SEQ ID NO: 4, tested biotinylated (C-terminal GSSGK(biotin) or other spacer)]”, for which the “binding to human ASCs (percent positivity relative to Neutravidin-PE staining)” value in assay [3] was “high binding”. The “binding to human MSCs (percent positivity relative to Neutravidin-PE staining)” value in assay [4] is “high binding”. In assay [5], the “binding to dermal fibroblasts (percent positivity relative to Neutravidin-PE staining)” value is “high binding”. In addition, the “cross-reactivity with ECFCs” value in assay [6] was “cross-reacted strongly”. Further, in assay [7], the “cross-reactivity with UASMCs” value is “weakly”. The “cross-reactivity with HUVECs” value in assay [8] is listed as “cross-reacted strongly”.

For the origin of these results see patent US20110117169A1, “METHODS AND COMPOSITIONS FOR CAPTURE OF CELLS” (AFFINERGY, INC., priority 2009, published 2011).
